Results published in ChEMBL document CHEMBL3046405, “Knockdown of several components of cytochrome P450 enzyme systems by RNA interference enhances the susceptibility of Helicoverpa armigera to fenvalerate” (2012).

Assays:
Type in all cases: functional
Helicoverpa armigera [1] = test: Insecticidal activity against fenvalerate-resistant Helicoverpa armigera HDFR third-instar larvae injected with dsCYP6B7-313-1 dsRNA plus dsCPR-403-1 dsRNA and dsCyt-b5-4 dsRNA assessed as compound level per larva causing mortality after 12 hr
Helicoverpa armigera [2] = test: Insecticidal activity against fenvalerate-resistant Helicoverpa armigera HDFR third-instar larvae injected with dsCYP6B7-313-1 dsRNA plus dsCyt-b5-4 dsRNA assessed as compound level per larva causing mortality after 12 hr
Helicoverpa armigera [3] = test: Insecticidal activity against fenvalerate-resistant Helicoverpa armigera HDFR third-instar larvae injected with dsCYP6B7-313-1 dsRNA plus dsCPR-403-1 dsRNA assessed as compound level per larva causing mortality after 12 hr
Helicoverpa armigera [4] = test: Insecticidal activity against fenvalerate-resistant Helicoverpa armigera HDFR third-instar larvae injected with dsCYP6B7-313-1 dsRNA assessed as compound level per larva causing mortality after 12 hr
Helicoverpa armigera [5] = test: Insecticidal activity against fenvalerate-resistant Helicoverpa armigera HDFR third-instar larvae injected with TE buffer assessed as compound level per larva causing mortality after 12 hr
Helicoverpa armigera [6] = test: Insecticidal activity against fenvalerate-resistant Helicoverpa armigera HDFR third-instar larvae without dsRNA injection assessed as compound level per larva causing mortality after 12 hr
Helicoverpa armigera [7] = test: Resistance index, ratio of LD50 for fenvalerate-resistant Helicoverpa armigera HDFR third-instar larvae to LD50 for fenvalerate-susceptible Helicoverpa armigera third-instar larvae
Helicoverpa armigera [8] = test: Insecticidal activity against fenvalerate-resistant Helicoverpa armigera HDFR third-instar larvae assessed as compound level per larva causing mortality after 48 hr
Helicoverpa armigera [9] = test: Insecticidal activity against fenvalerate-susceptible Helicoverpa armigera third-instar larvae assessed as compound level per larva causing mortality after 48 hr
Helicoverpa armigera [10] = test: Insecticidal activity against fenvalerate-resistant Helicoverpa armigera HDFR third-instar larvae injected with dsCYP6B7-313-1 dsRNA plus dsCPR-403-1 dsRNA and dsCyt-b5-4 dsRNA assessed as insect mortality at 4 to 16 ug/larva after 48 hr (fenvalerate alone control = 29.1 to 50.0%)
Helicoverpa armigera [11] = test: Insecticidal activity against fenvalerate-resistant Helicoverpa armigera HDFR third-instar larvae injected with dsCYP6B7-313-1 dsRNA plus dsCyt-b5-4 dsRNA assessed as insect mortality at 4 to 16 ug/larva after 48 hr (fenvalerate alone control = 29.1 to 50.0%)
Helicoverpa armigera [12] = test: Potency index, ratio of LD50 for fenvalerate-resistant Helicoverpa armigera HDFR third-instar larvae injected with TE buffer to LD50 for fenvalerate-resistant Helicoverpa armigera HDFR third-instar larvae injected with dsCYP6B7-313-1 dsRNA after 24 hr
Helicoverpa armigera [13] = test: Insecticidal activity against fenvalerate-resistant Helicoverpa armigera HDFR third-instar larvae injected with dsCYP6B7-313-1 dsRNA plus dsCPR-403-1 dsRNA assessed as insect mortality at 4 to 16 ug/larva after 48 hr (fenvalerate alone control = 29.1 to 50.0%)
Helicoverpa armigera [14] = test: Insecticidal activity against fenvalerate-resistant Helicoverpa armigera HDFR third-instar larvae injected with dsCYP6B7-313-1 dsRNA assessed as insect mortality at 4 to 16 ug/larva after 48 hr (fenvalerate alone control = 29.1 to 50.0%)
Helicoverpa armigera [15] = test: Potency index, ratio of LD50 for fenvalerate-resistant Helicoverpa armigera HDFR third-instar larvae injected with TE buffer to LD50 for fenvalerate-resistant Helicoverpa armigera HDFR third-instar larvae injected with dsCYP6B7-313-1 dsRNA plus dsCPR-403-1 dsRNA and dsCyt-b5-4 dsRNA after 48 hr
Helicoverpa armigera [16] = test: Potency index, ratio of LD50 for fenvalerate-resistant Helicoverpa armigera HDFR third-instar larvae injected with TE buffer to LD50 for fenvalerate-resistant Helicoverpa armigera HDFR third-instar larvae injected with dsCYP6B7-313-1 dsRNA plus dsCyt-b5-4 dsRNA after 48 hr
Helicoverpa armigera [17] = test: Potency index, ratio of LD50 for fenvalerate-resistant Helicoverpa armigera HDFR third-instar larvae injected with TE buffer to LD50 for fenvalerate-resistant Helicoverpa armigera HDFR third-instar larvae injected with dsCYP6B7-313-1 dsRNA plus dsCPR-403-1 after 48 hr
Helicoverpa armigera [18] = test: Potency index, ratio of LD50 for fenvalerate-resistant Helicoverpa armigera HDFR third-instar larvae injected with TE buffer to LD50 for fenvalerate-resistant Helicoverpa armigera HDFR third-instar larvae injected with dsCYP6B7-313-1 dsRNA after 48 hr
Helicoverpa armigera [19] = test: Potency index, ratio of LD50 for fenvalerate-resistant Helicoverpa armigera HDFR third-instar larvae injected with TE buffer to LD50 for fenvalerate-resistant Helicoverpa armigera HDFR third-instar larvae injected with dsCYP6B7-313-1 dsRNA plus dsCPR-403-1 dsRNA and dsCyt-b5-4 dsRNA after 36 hr
Helicoverpa armigera [20] = test: Potency index, ratio of LD50 for fenvalerate-resistant Helicoverpa armigera HDFR third-instar larvae injected with TE buffer to LD50 for fenvalerate-resistant Helicoverpa armigera HDFR third-instar larvae injected with dsCYP6B7-313-1 dsRNA plus dsCyt-b5-4 dsRNA after 36 hr
Helicoverpa armigera [21] = test: Potency index, ratio of LD50 for fenvalerate-resistant Helicoverpa armigera HDFR third-instar larvae injected with TE buffer to LD50 for fenvalerate-resistant Helicoverpa armigera HDFR third-instar larvae injected with dsCYP6B7-313-1 dsRNA plus dsCPR-403-1 after 36 hr
Helicoverpa armigera [22] = test: Potency index, ratio of LD50 for fenvalerate-resistant Helicoverpa armigera HDFR third-instar larvae injected with TE buffer to LD50 for fenvalerate-resistant Helicoverpa armigera HDFR third-instar larvae injected with dsCYP6B7-313-1 dsRNA after 36 hr
Helicoverpa armigera [23] = test: Potency index, ratio of LD50 for fenvalerate-resistant Helicoverpa armigera HDFR third-instar larvae injected with TE buffer to LD50 for fenvalerate-resistant Helicoverpa armigera HDFR third-instar larvae injected with dsCYP6B7-313-1 dsRNA plus dsCPR-403-1 dsRNA and dsCyt-b5-4 dsRNA after 24 hr
Helicoverpa armigera [24] = test: Potency index, ratio of LD50 for fenvalerate-resistant Helicoverpa armigera HDFR third-instar larvae injected with TE buffer to LD50 for fenvalerate-resistant Helicoverpa armigera HDFR third-instar larvae injected with dsCYP6B7-313-1 dsRNA plus dsCyt-b5-4 dsRNA after 24 hr
Helicoverpa armigera [25] = test: Potency index, ratio of LD50 for fenvalerate-resistant Helicoverpa armigera HDFR third-instar larvae injected with TE buffer to LD50 for fenvalerate-resistant Helicoverpa armigera HDFR third-instar larvae injected with dsCYP6B7-313-1 dsRNA plus dsCPR-403-1 after 24 hr
Helicoverpa armigera [26] = test: Potency index, ratio of LD50 for fenvalerate-resistant Helicoverpa armigera HDFR third-instar larvae injected with TE buffer to LD50 for fenvalerate-resistant Helicoverpa armigera HDFR third-instar larvae injected with dsCYP6B7-313-1 dsRNA plus dsCPR-403-1 dsRNA and dsCyt-b5-4 dsRNA after 12 hr
Helicoverpa armigera [27] = test: Potency index, ratio of LD50 for fenvalerate-resistant Helicoverpa armigera HDFR third-instar larvae injected with TE buffer to LD50 for fenvalerate-resistant Helicoverpa armigera HDFR third-instar larvae injected with dsCYP6B7-313-1 dsRNA plus dsCyt-b5-4 dsRNA after 12 hr
Helicoverpa armigera [28] = test: Potency index, ratio of LD50 for fenvalerate-resistant Helicoverpa armigera HDFR third-instar larvae injected with TE buffer to LD50 for fenvalerate-resistant Helicoverpa armigera HDFR third-instar larvae injected with dsCYP6B7-313-1 dsRNA plus dsCPR-403-1 after 12 hr
Helicoverpa armigera [29] = test: Potency index, ratio of LD50 for fenvalerate-resistant Helicoverpa armigera HDFR third-instar larvae injected with TE buffer to LD50 for fenvalerate-resistant Helicoverpa armigera HDFR third-instar larvae injected with dsCYP6B7-313-1 dsRNA after 12 hr
Helicoverpa armigera [30] = test: Insecticidal activity against fenvalerate-resistant Helicoverpa armigera HDFR third-instar larvae injected with dsCYP6B7-313-1 dsRNA plus dsCPR-403-1 dsRNA and dsCyt-b5-4 dsRNA assessed as compound level per larva causing mortality after 48 hr
Helicoverpa armigera [31] = test: Insecticidal activity against fenvalerate-resistant Helicoverpa armigera HDFR third-instar larvae injected with dsCYP6B7-313-1 dsRNA plus dsCyt-b5-4 dsRNA assessed as compound level per larva causing mortality after 48 hr
Helicoverpa armigera [32] = test: Insecticidal activity against fenvalerate-resistant Helicoverpa armigera HDFR third-instar larvae injected with dsCYP6B7-313-1 dsRNA plus dsCPR-403-1 dsRNA assessed as compound level per larva causing mortality after 48 hr
Helicoverpa armigera [33] = test: Insecticidal activity against fenvalerate-resistant Helicoverpa armigera HDFR third-instar larvae injected with dsCYP6B7-313-1 dsRNA assessed as compound level per larva causing mortality after 48 hr
Helicoverpa armigera [34] = test: Insecticidal activity against fenvalerate-resistant Helicoverpa armigera HDFR third-instar larvae injected with TE buffer assessed as compound level per larva causing mortality after 48 hr
Helicoverpa armigera [35] = test: Insecticidal activity against fenvalerate-resistant Helicoverpa armigera HDFR third-instar larvae without dsRNA injection assessed as compound level per larva causing mortality after 48 hr
Helicoverpa armigera [36] = test: Insecticidal activity against fenvalerate-resistant Helicoverpa armigera HDFR third-instar larvae injected with dsCYP6B7-313-1 dsRNA plus dsCPR-403-1 dsRNA and dsCyt-b5-4 dsRNA assessed as compound level per larva causing mortality after 36 hr
Helicoverpa armigera [37] = test: Insecticidal activity against fenvalerate-resistant Helicoverpa armigera HDFR third-instar larvae injected with dsCYP6B7-313-1 dsRNA plus dsCyt-b5-4 dsRNA assessed as compound level per larva causing mortality after 36 hr
Helicoverpa armigera [38] = test: Insecticidal activity against fenvalerate-resistant Helicoverpa armigera HDFR third-instar larvae injected with dsCYP6B7-313-1 dsRNA plus dsCPR-403-1 dsRNA assessed as compound level per larva causing mortality after 36 hr
Helicoverpa armigera [39] = test: Insecticidal activity against fenvalerate-resistant Helicoverpa armigera HDFR third-instar larvae injected with dsCYP6B7-313-1 dsRNA assessed as compound level per larva causing mortality after 36 hr
Helicoverpa armigera [40] = test: Insecticidal activity against fenvalerate-resistant Helicoverpa armigera HDFR third-instar larvae injected with TE buffer assessed as compound level per larva causing mortality after 36 hr
Helicoverpa armigera [41] = test: Insecticidal activity against fenvalerate-resistant Helicoverpa armigera HDFR third-instar larvae without dsRNA injection assessed as compound level per larva causing mortality after 36 hr
Helicoverpa armigera [42] = test: Insecticidal activity against fenvalerate-resistant Helicoverpa armigera HDFR third-instar larvae injected with dsCYP6B7-313-1 dsRNA plus dsCPR-403-1 dsRNA and dsCyt-b5-4 dsRNA assessed as compound level per larva causing mortality after 24 hr
Helicoverpa armigera [43] = test: Insecticidal activity against fenvalerate-resistant Helicoverpa armigera HDFR third-instar larvae injected with dsCYP6B7-313-1 dsRNA plus dsCyt-b5-4 dsRNA assessed as compound level per larva causing mortality after 24 hr
Helicoverpa armigera [44] = test: Insecticidal activity against fenvalerate-resistant Helicoverpa armigera HDFR third-instar larvae injected with dsCYP6B7-313-1 dsRNA plus dsCPR-403-1 dsRNA assessed as compound level per larva causing mortality after 24 hr
Helicoverpa armigera [45] = test: Insecticidal activity against fenvalerate-resistant Helicoverpa armigera HDFR third-instar larvae injected with dsCYP6B7-313-1 dsRNA assessed as compound level per larva causing mortality after 24 hr
Helicoverpa armigera [46] = test: Insecticidal activity against fenvalerate-resistant Helicoverpa armigera HDFR third-instar larvae injected with TE buffer assessed as compound level per larva causing mortality after 24 hr
Helicoverpa armigera [47] = test: Insecticidal activity against fenvalerate-resistant Helicoverpa armigera HDFR third-instar larvae without dsRNA injection assessed as compound level per larva causing mortality after 24 hr

Question: Which results are given for `CC(C)C(C(=O)OC(C#N)c1cccc(Oc2ccccc2)c1)c1ccc(Cl)cc1` (configuration not stated) [FENVALERATE]?
Answer: LD50 (Helicoverpa armigera [1]): 12.6 µg; LD50 (Helicoverpa armigera [2]): 19 µg; LD50 (Helicoverpa armigera [3]): 16.8 µg; LD50 (Helicoverpa armigera [4]): 23.9 µg; LD50 (Helicoverpa armigera [5]): 46.8 µg; LD50 (Helicoverpa armigera [6]): 48.8 µg; Ratio (Helicoverpa armigera [7]): 164; LD50 (Helicoverpa armigera [8]): 16.13 µg; LD50 (Helicoverpa armigera [9]): 0.0982 µg; mortality (Helicoverpa armigera [10]): 44.4%; mortality (Helicoverpa armigera [11]): 50%; Ratio (Helicoverpa armigera [12]): 1.8; mortality (Helicoverpa armigera [13]): 40.7%; mortality (Helicoverpa armigera [14]): 38.8%; Ratio (Helicoverpa armigera [15]): 3.2; Ratio (Helicoverpa armigera [16]): 3.1; Ratio (Helicoverpa armigera [17]): 2.4; Ratio (Helicoverpa armigera [18]): 2; Ratio (Helicoverpa armigera [19]): 3; Ratio (Helicoverpa armigera [20]): 2.6; Ratio (Helicoverpa armigera [21]): 2.9; Ratio (Helicoverpa armigera [22]): 1.6; Ratio (Helicoverpa armigera [23]): 3.5; Ratio (Helicoverpa armigera [24]): 2.4; Ratio (Helicoverpa armigera [25]): 2.9; Ratio (Helicoverpa armigera [26]): 3.7; Ratio (Helicoverpa armigera [27]): 2.5; Ratio (Helicoverpa armigera [28]): 2.8; Ratio (Helicoverpa armigera [29]): 2; LD50 (Helicoverpa armigera [30]): 6.7 µg; LD50 (Helicoverpa armigera [31]): 6.9 µg; LD50 (Helicoverpa armigera [32]): 8.9 µg; LD50 (Helicoverpa armigera [33]): 10.7 µg; LD50 (Helicoverpa armigera [34]): 21.5 µg; LD50 (Helicoverpa armigera [35]): 23.1 µg; LD50 (Helicoverpa armigera [36]): 8.6 µg; LD50 (Helicoverpa armigera [37]): 9.9 µg; LD50 (Helicoverpa armigera [38]): 8.9 µg; LD50 (Helicoverpa armigera [39]): 16.5 µg; LD50 (Helicoverpa armigera [40]): 25.6 µg; LD50 (Helicoverpa armigera [41]): 26.1 µg; LD50 (Helicoverpa armigera [42]): 10.2 µg; LD50 (Helicoverpa armigera [43]): 14.5 µg; LD50 (Helicoverpa armigera [44]): 12.3 µg; LD50 (Helicoverpa armigera [45]): 19.7 µg; LD50 (Helicoverpa armigera [46]): 35.2 µg; LD50 (Helicoverpa armigera [47]): 35.7 µg
